# System: hyaluronic acid
# Format: cell-based
substance,measurement,value
4-Methylumbelliferone [4-MU],"Hyaluronic acid with 4-MU, HIS-SARS-CoV-2-3 overexpressed",30.02 ± 2.00 ng/mL
same,"Hyaluronic acid with 4-MU, HIS-SARS-CoV-2-4 overexpressed",19.76 ± 11.3 ng/mL
